# Experimental data reported in US9193731B2, “Antimicrobial compounds and methods of making and using the same” (Melinta Therapeutics, Inc., priority 2009, dated 2015).
# Test system: Escherichia coli strain ATCC25922
# Experiment: standard microdilution assay to determine minimum inhibitory concentrations (MICs)
# Type: cell-based
# Settings: Escherichia coli strain ATCC25922, microdilution
# Description: Minimum inhibitory concentrations (MICs) are determined by the microdilution method, typically in a final volume of 100 microliters, according to protocols outlined by The Clinical and Laboratory Standards Institute [CLSI; formerly the National Committee for Clinical Laboratory Standards (NCCLS)]. See CLSI: Methods for dilution antimicrobial susceptibility tests for bacteria that grow aerobically; approved standard-fifth edition. Wayne, Pa.: NCCLS; 2000. The assays can be also be performed in microtiter trays according to conventional methodologies as published by the CLSI. See CLSI. Methods for Dilution Antimicrobial Susceptibility Tests for Bacteria That Grow Aerobically; Approved Standard—Seventh Edition. CLSI Document M7-A7 [ISBN 1-56238-587-9] CLSI, 940 West Valley Road, Suite 1400, Wayne Pa. 19087-1898 USA, 2006).
# The compounds of the present invention were tested for antimicrobial activity. The compounds were run against Escherichia coli strain ATCC25922 using a standard microdilution assay to determine minimum inhibitory concentrations (MICs). […] A “N/A” means that data is unavailable. It will be recognized by one skilled in the art that the compounds can be assessed against other bacterial organisms and that the presentation of data for activity against Escherichia coli is illustrative and in no way is intended to limit the scope of the present invention. The compounds of the present invention can be assayed against a range of other microorganisms depending upon the performance activity desired to be gathered. Furthermore, the “+”, “−”, and “N/A” representation and the selection of a cutoff value of 16 micrograms/ml is also illustrative and in no way is intended to limit the scope of the present invention.
row,Structure (SMILES),E. coli ATCC25922 MIC
1,N=C(N)NCCCNCc1ccc(-n2cc3cc(-c4cc(C(=O)NC5CCC(F)(F)CC5)cc(N5CCNCC5)c4)[nH]c3nc2=O)cc1 [Compound 1045],+ (a “+” indicates that the compound has an MIC value of 16 micrograms/ml or less)
2,N=C(N)NCCCNC(c1ccc(-n2cc3cc(-c4ccc(S(=O)(=O)NC5CCNCC5)cc4)[nH]c3nc2=O)cc1)C(F)(F)F (stereo not drawn) [Compound 1015],+ (a “+” indicates that the compound has an MIC value of 16 micrograms/ml or less)
3,N=C(N)NCCCNCc1ccc(-n2cc3cc(-c4cccc(C(NCCN)C(F)(F)F)c4)[nH]c3nc2=O)cc1 (stereo not drawn) [Compound 2025a],+ (a “+” indicates that the compound has an MIC value of 16 micrograms/ml or less)
4,CNCc1ccc(-n2cc3cc(-c4ccc(S(=O)(=O)N(CCCc5ccc(O)cc5)C5CCNCC5)cc4)[nH]c3nc2=O)cc1 [Compound 1064],− (a “−” indicates that the compound has an MIC value greater than 16 micrograms/ml)
5,N=C(N)NCC(O)CNCc1ccc(-n2cc3cc(-c4ccc(S(=O)(=O)NC5CNC5)cc4)[nH]c3nc2=O)cc1 (stereo not drawn) [Compound 1416],+ (a “+” indicates that the compound has an MIC value of 16 micrograms/ml or less)
6,N=C(N)N[C@@H]1CCN(Cc2ccc(-n3cc4cc(-c5ccc(S(=O)(=O)N(CC6CCOCC6)C6CCNCC6)cc5)[nH]c4nc3=O)cc2)C1 [Compound 1206],− (a “−” indicates that the compound has an MIC value greater than 16 micrograms/ml)
7,N=C(N)NCCCNCc1ccc(-n2cc3cc(-c4ccc(S(=O)(=O)N(CCCC(N)=O)C5CCNCC5)cc4)[nH]c3nc2=O)cc1 [Compound 843],+ (a “+” indicates that the compound has an MIC value of 16 micrograms/ml or less)
8,N=C(N)NCCCNCc1ccc(-n2cc3cc(CCS(=O)(=O)N(Cc4ccc(Cl)c(Cl)c4)C4CCNCC4)[nH]c3nc2=O)cc1 [Compound 913],+ (a “+” indicates that the compound has an MIC value of 16 micrograms/ml or less)
9,N[C@@H]1CCCN(Cc2ccc(-n3cc4cc(-c5ccc(S(=O)(=O)NC6CCNCC6)cc5)[nH]c4nc3=O)cc2)C1 [Compound 1120],− (a “−” indicates that the compound has an MIC value greater than 16 micrograms/ml)
10,NCCCOCc1ccc(-c2cn3cc(-c4ccc(C(=O)N5CCNCC5)cc4)[nH]c3nc2=O)cc1 [Compound 931],− (a “−” indicates that the compound has an MIC value greater than 16 micrograms/ml)
11,N=C(N)NCCCNCc1ccc(-c2cn3cc(-c4ccc(C(=O)NCCO)cc4)[nH]c3nc2=O)cc1 [Compound 828],+ (a “+” indicates that the compound has an MIC value of 16 micrograms/ml or less)
12,N=C(N)NCCCNCc1ccc(-n2cc3cc(-c4cc(CCCCN)ccc4Cl)[nH]c3nc2=O)cc1 [Compound 2073a],+ (a “+” indicates that the compound has an MIC value of 16 micrograms/ml or less)
13,CNCc1ccc(-n2cc3cc(-c4ccc(S(=O)(=O)N(CCCc5cn[nH]c5)C5CCNCC5)cc4)[nH]c3nc2=O)cc1 [Compound 1351],− (a “−” indicates that the compound has an MIC value greater than 16 micrograms/ml)
14,N=C(N)NCCCNCc1ccc(-n2cc3cc(-c4cc(CCO)cc(CCCCN)c4)[nH]c3nc2=O)cc1 [Compound 2053a],+ (a “+” indicates that the compound has an MIC value of 16 micrograms/ml or less)
15,N=C(N)NCCCNCc1ccc(-n2cc3cc(-c4cccc(S(=O)(=O)N(CCC(N)=O)C5CCNCC5)c4)[nH]c3nc2=O)cc1 [Compound 1259],+ (a “+” indicates that the compound has an MIC value of 16 micrograms/ml or less)
16,N=C(N)NCCC(NCc1ccc(-n2cc3cc(-c4cc(CCCCN)cc(OC(F)(F)F)c4)[nH]c3nc2=O)cc1)C(F)(F)F (stereo not drawn) [Compound 2078a],+ (a “+” indicates that the compound has an MIC value of 16 micrograms/ml or less)
17,N=C(N)NCCCNCc1ccc(-n2cc3cc(-c4ccc(S(=O)(=O)N(CCCN5CCCCC5)C5CCNCC5)cc4)[nH]c3nc2=O)cc1 [Compound 839],+ (a “+” indicates that the compound has an MIC value of 16 micrograms/ml or less)
18,N=C(N)NC1CCN(Cc2ccc(-n3cc4cc(-c5ccc(S(=O)(=O)N(Cc6ccncc6)C6CCNCC6)cc5)[nH]c4nc3=O)cc2)C1 (stereo not drawn) [Compound 1178],+ (a “+” indicates that the compound has an MIC value of 16 micrograms/ml or less)
19,N=C(N)NCCCNCCCn1cc2cc(-c3ccc(S(=O)(=O)NC4CCNCC4)cc3)[nH]c2nc1=O [Compound 1059],+ (a “+” indicates that the compound has an MIC value of 16 micrograms/ml or less)
20,N=C(N)NCCCNCc1ccc(-n2cc3cc(-c4ccc(S(=O)(=O)N(CCCc5cc(-c6ccccc6)n[nH]5)C5CCNCC5)cc4)[nH]c3nc2=O)cc1 [Compound 1175],+ (a “+” indicates that the compound has an MIC value of 16 micrograms/ml or less)
21,COC(CN)COc1cccc(-c2cc3cn(-c4ccc(CNCCCNC(=N)N)cc4)c(=O)nc3[nH]2)c1 (stereo not drawn) [Compound 1400],+ (a “+” indicates that the compound has an MIC value of 16 micrograms/ml or less)
22,N=C(N)NCCCNCc1ccc(-n2cc3cc(-c4ccc(NC(=O)CNC5CCNCC5)cc4)[nH]c3nc2=O)cc1 [Compound 1290],+ (a “+” indicates that the compound has an MIC value of 16 micrograms/ml or less)
23,CC(C)(N)CCOc1cccc(-c2cc3cn(-c4ccc(CNCCCNC(=N)N)cc4)c(=O)nc3[nH]2)c1 [Compound 1410],+ (a “+” indicates that the compound has an MIC value of 16 micrograms/ml or less)

# Same assay, conditions: Escherichia coli, ATCC25922, Escherichia coli strain ATCC25922, microdilution; read-out: E. coli ATCC25922 MIC
row,Structure (SMILES),MIC
1,NCCCNCc1ccc(-n2cc3cc(-c4ccc(S(=O)(=O)NC5CCNCC5)cc4)[nH]c3nc2=O)cc1 [Compound 852],< 16 µg/mL
2,NCCCNCc1ccc(-n2cc3cc(CN4CCS(=O)(=O)CC4)[nH]c3nc2=O)cc1 [Compound 613],> 16 µg/mL
3,N=C(N)NCCCNCc1ccc(-c2cn3nc(-c4ccc(F)cc4)[nH]c3nc2=O)cc1 [Compound 663],> 16 µg/mL
4,NCCCN(CCCN)Cc1ccc(-n2cc3cc(-c4ccc(S(=O)(=O)N(Cc5ccc(Cl)c(Cl)c5)C5CCNCC5)cc4)[nH]c3nc2=O)cc1 [Compound 235],< 16 µg/mL
5,N=C(N)NCCCNCc1ccc(-n2cc3cc(-c4ccc(S(=O)(=O)N(Cc5ccncc5)C5CCNCC5)cc4)[nH]c3nc2=O)cc1 [Compound 757],< 16 µg/mL
6,NCCCNCc1ccc(-n2cc3c(nc2=O)[nH]c2ccccc23)cc1 [Compound 335],> 16 µg/mL
7,N=C(N)NCCCNCc1ccc(-c2cn3cc(-c4ccc(C(=O)N5CCN(CCN6CCOCC6)CC5)cc4)[nH]c3nc2=O)cc1 [Compound 684],> 16 µg/mL
8,NCCCNCc1ccc(-n2cc3cc(-c4ccc(OC(F)(F)F)cc4)[nH]c3nc2=O)cc1 [Compound 296],> 16 µg/mL
9,N=C(N)NCCCNC(=O)c1ccc(-n2cc3cc(-c4cc(CCCCN)cc(C(F)(F)F)c4)[nH]c3nc2=O)cc1 [Compound 2034a],< 16 µg/mL
10,NCCCN(CCCN)Cc1ccc(-n2cc3cc(-c4ccc(F)cc4)[nH]c3nc2=O)cc1 [Compound 180],> 16 µg/mL
11,NCCCc1c[nH]c2cc(-n3cc4cc(CCS(=O)(=O)C5CCNCC5)[nH]c4nc3=O)ccc12 [Compound 1282],> 16 µg/mL
12,NCCCN(CCCN)Cc1ccc(-n2cc3cc(CCc4ccccc4)[nH]c3nc2=O)cc1 [Compound 183],> 16 µg/mL
13,CO[C@@H](CN)COc1cccc(-c2cc3cn(-c4ccc(CN)cc4)c(=O)nc3[nH]2)c1 [Compound 1444],> 16 µg/mL
14,N=C(N)NCCCNC(=O)c1ccc(-n2cc3cc(C4CCCNC4)[nH]c3nc2=O)cc1 (stereo not drawn) [Compound 1257],> 16 µg/mL
15,CN(C)CCCOc1cccc(-c2cc3cn(-c4ccc(CNC(=O)CCNC(=N)N)cc4)c(=O)nc3[nH]2)c1 [Compound 1202],> 16 µg/mL
16,NCc1ccc(-n2cc3cc(-c4cccc(S(=O)(=O)N(CCOc5ccc(F)cc5)C5CCNCC5)c4)[nH]c3nc2=O)cc1 [Compound 1123],> 16 µg/mL
17,NCCCN(CCCN)Cc1ccc(-n2cc3cc(-c4ccc(C(=O)NC5CCNCC5)cc4)[nH]c3nc2=O)cc1 [Compound 197],< 16 µg/mL
18,N=C(N)NCCCNC(=O)c1ccc(-n2cc3cc(-c4ccc(C[C@H](N)CO)cc4)[nH]c3nc2=O)cc1 [Compound 1164],< 16 µg/mL
19,NCCCNCc1ccc(-n2cc3cc(-c4ccccc4Cl)[nH]c3nc2=O)cc1 [Compound 288],> 16 µg/mL
20,N=C(N)NCCCNCc1ccc(-n2cc3cc(C4CCCC(CNCCN)C4)[nH]c3nc2=O)cc1 (stereo not drawn) [Compound 2026a],< 16 µg/mL
21,N=C(N)NCCC(=O)NCc1ccc(-n2cc3cc(-c4ccc(C[C@H](N)CO)cc4)[nH]c3nc2=O)cc1 [Compound 1163],< 16 µg/mL
22,N=C(N)NCCCNCc1ccc(-c2cn3cc(-c4ccc(C(=O)N5CCOCC5)cc4)[nH]c3nc2=O)cc1 [Compound 654],> 16 µg/mL
23,N=C(N)NCCCNCc1ccc(-c2cn3cc(-c4ccc(Br)cc4)[nH]c3nc2=O)cc1 [Compound 618],> 16 µg/mL
24,NCc1ccc(-n2cc3cc(-c4cccc(S(=O)(=O)N(CCn5ccnc5)C5CCNCC5)c4)[nH]c3nc2=O)cc1 [Compound 1157],> 16 µg/mL
25,NCCCNCc1ccc(-n2cc3cc(-c4ccc(S(=O)(=O)N(CC5CC5)C5CCNCC5)cc4)[nH]c3nc2=O)cc1 [Compound 711],< 16 µg/mL
